Data published in patent US20060106102A1, “Napththalene derivatives which inhibit the cytokine or biological activity of microphage migration inhibitory factor (mif)” (priority 2002, published 2006).
Where a name gives a salt, the structure may show the parent alone. Read-outs that look alike come from different tables or passages of the source.

Assays:
[1] = system: recombinant human macrophage migration inhibitory factor (MIF)-induced proliferation of S112 human dermal fibroblasts; assay: MIF-induced proliferation of S112 human dermal fibroblasts, 3H-thymidine incorporation; type: cell-based
Protocol: The activity of each compound was studied in a bioassay utilising MIF-induced proliferation of human dermal fibroblasts. S112 human dermal fibroblasts were propagated in RPMI/10% foetal calf serum (FCS). Prior to experimentation, cells were seeded at 10^5 cells/ml in RPMI/0.1% BSA for 18 hours. At time point zero, culture medium was replaced with RPMI/10% FCS and treatments administered. Cells were treated with recombinant human macrophage migration inhibitory factor (MIF) 50 ng/ml (1.353×10^−9 M) and/or the compound at a 1 or 1000 molar ratio to the concentration of MIF. In some experiments the compound was combined with MIF at time point −30 minutes, prior to adding at time point zero. At time point 30 hours, cells were pulsed with […]. At time point 48 hours, cells were harvested using a semi-automated cell harvester. The radioactivity incorporated into DNA was determined by liquid scintillation counting, with results expressed as [^3H] thymidine incorporation. The proliferation of untreated cells was expressed as 100% and the effect of MIF and each compound expressed in relative %.
The activity of compound 5 was studied in a bioassay utilising MIF-induced proliferation of human dermal fibroblasts. S112 human dermal fibroblasts were propagated in RPMI/10% foetal calf serum (FCS). Prior to experimentation, cells were seeded at 10^5 cells/ml in RPMII/0.1% BSA for 18 hours. At time point zero, culture medium was replaced with RPMI/10% FCS and treatments administered. Cells were treated with recombinant human macrophage migration inhibitory factor (MIF) 50 ng/ml and/or compound 5 at a 1-1000 molar ratio to the concentration of MIF. At a time point 30 hours later, cells were pulsed with 1 μCi/well of ^3H-thymidine. At a time point 48 hours after commencement of the experiment, cells were harvested using a semi-automated cell harvester. The radioactivity incorporated into DNA was determined by liquid scintillation counting, with results expressed as [^3H] thymidine incorporation.

[2] = system: antigen-specific T cell activation (splenic T lymphocytes from mBSA-immunised mice); assay: antigen-specific (mBSA) activation of splenic T lymphocytes in vitro, 3H-thymidine incorporation; type: cell-based, C57BL6/J mice
Protocol: After a further seven (7) days mice were killed and spleens collected aseptically into Hanks buffered saline solution (HBSS). A single cell suspension was prepared in Petri dishes by flushing DMEM through the organ using a 26G needle and 2 mL syringe. The resulting cell suspension was centrifuged for 5-7 minutes and supernatant discarded. Erythrocytes were lysed using a solution containing 0.579% NH4Cl, 0.000037% EDTA, and 0.1% NaHCO3 in a 37° C. water bath. Tubes were then filled with DMEM and centrifuged for 5-7 minutes. […] The specific stimulating antigen, mBSA, was then added at 10-50 μg/mL and plates incubated for 30 hours in a 37° C., 5% CO2 incubator. Tritiated^3H-thymidine was then added at a concentration of 0.5 μCi/well for a further 18 hours. Cells were harvested on a Packard cell harvester, and the harvested material added to 750 μL/tube scintillation fluid. Scintillation counts were read on a Wallac beta-emnission counter. […] Further compounds were also tested for their ability to inhibit antigen-specific T cell activation as a marker of the inhibition of the cytokine or biological activity of MIF using this assay.

[3] = system: IL-1-induced COX-2 expression; assay: IL-1-induced COX-2 expression in S112 human dermal fibroblasts (MIF-dependent event), flow cytometry; type: cell-based; conditions: for inhibition at 1 µM: compound 1 uM
Protocol: The activity of each compound was studied in a bioassay utilising MIF-dependent activation of human dermal fibroblasts. […] IL-1-induced COX-2 expression is therefore a MIF-dependent event. […] Prior to experimentation, cells were seeded at 10^5 cells/ml in RPMI/0.1% BSA for 18 hours. […] Cells permeabilised with 0.1% saponin were sequentially labelled with a mouse anti-human COX-2 monoclonal antibody and with sheep-anti-mouse F(ab)2 fragment labelled with fluoroscein isothiocyanate. Cellular fluorescence was determined using a flow cytometer. At least 5000 events were counted for each reading, each of which was performed in duplicate, and the results expressed in mean fluorescence intensity (MFI) after subtraction of negative control-labelled cell fluorescence. The effect of each compound was determined by subtracting the IL-1+compound-treated cell MFI from the IL-1-treated cell MFI and expressed as % inhibition. In each case the % inhibition of IL-1-induced COX2 expression is shown as the mean, or mean±SEM where results are available from multiple experiments.

[4] = Mus musculus, T-cell, mBSA 10 μg/ml, read-out: EC50 (T cell activation suppressed by 50% compared to vehicle-only-treated cells)
[5] = Mus musculus, T-cell, mBSA 50 μg/ml, read-out: EC50 (T cell activation suppressed by 50% compared to vehicle-only-treated cells)
[6] = mBSA 10 μg/ml, read-out: EC50 (T cell activation suppressed by 50% compared to vehicle-only-treated cells)
[7] = mBSA 50 μg/ml, read-out: EC50 (T cell activation suppressed by 50% compared to vehicle-only-treated cells)
[8] = Homo sapiens, Fibroblast, IL-1 0.1 ng/ml, 6 hours, S112 cells, read-out: % inhibition of IL-1-induced COX2 expression (Effect)
[9] = Homo sapiens, Fibroblast, compound 50 uM, IL-1 0.1 ng/ml, 6 hours, S112 cells, read-out: % inhibition of IL-1-induced COX2 expression (Effect)

EC50 [2, 4] [µM]	EC50 [2, 5] [µM]	Compound	inhibition at 50 µM [3, 9] [%]	further results
–	–	Oc1cc2ccccc2cc1O [Compound 1, 6,7-dihydroxynaphthalene]	–	inhibition at 0.13 µM ([1]; Homo sapiens, Fibroblast, concentration 0.13 μM, rhMIF 50 ng/ml, S112 cells, read-out: % inhibition of proliferation compared to vehicle plus rhMIF-treated cells): 47%
2.39	> 100	O=C(O)c1ccc2c(S(=O)(=O)O)c(O)ccc2c1 [Compound 5, 2-carboxy-6-hydroxynaphthalene-5-sulfonic acid]	–	effect on MIF-induced proliferation of human dermal fibroblasts (FIGS. 1 and 2) ([1]; 1M ratio equivalent to MIF 50 ng/ml): inhibition of MIF-induced proliferation
–	–	COc1ccc2cc([C@H](C)C(=O)O)ccc2c1 [Compound 8, S-(+)-6-methoxy-α-methyl-2-naphthalene acetic acid]	–	EC50 [2, 6]: 57.7 µM; EC50 [2, 7]: > 100 µM; % inhibition of proliferation compared to vehicle plus rhMIF-treated cells ([1]; concentration 0.013 μM, rhMIF 50 ng/ml, S112 cells): 4%; % inhibition of proliferation compared to vehicle plus rhMIF-treated cells ([1]; concentration 0.13 μM, rhMIF 50 ng/ml, S112 cells): 36%
72.2	87.7	O=C(O)c1ccc2cc(O)ccc2c1 [Compound 9, 6-hydroxy-2-naphthanoic acid]	–	inhibition at 1 µM [3, 8]: 7.5%
10	16.7	CCCCCOS(=O)(=O)c1ccc2cc(O)c(O)cc2c1 [Compound 10, Pentyl 6,7-dihydroxy-2-naphthalenesulfonate]	27.7	–
–	–	CNc1ccc2cc(S(=O)(=O)O)ccc2c1 [Compound 11, 6-methylamino-2-naphthalene sulphonic acid, sodium salt]	–	EC50 ([2]; Mus musculus, T-cell, read-out: EC50 (T cell activation suppressed by 50% compared to vehicle-only-treated cells), mBSA 10 μg/ml): 0.02 µM; EC50 ([2]; Mus musculus, T-cell, read-out: EC50 (T cell activation suppressed by 50% compared to vehicle-only-treated cells), mBSA 50 μg/ml): 3.34 µM; inhibition at 25 µM ([3]; Homo sapiens, Fibroblast, 6 h, read-out: % inhibition of IL-1-induced COX2 expression (Effect)): 13.6%
10.2	0.12	O=C(O)c1ccc2cc3c(cc2c1)OCCO3 [Compound 14, 2,3-dihydronaphtho[2,3-b][1,4]dioxine-7-carboxylic acid]	24.1	–
51.7	21.5	COC(=O)c1ccc2cc(O)ccc2c1 [Compound 15, Methlyl-6-hydroxy-2-naphthoate]	–	inhibition at 1 µM [3, 8]: 17.3%
10.8	0.95	CCCCCCCCCCCCCCCCCCCCOC(=O)c1ccc2cc(O)ccc2c1 [Compound 19]	–	inhibition at 10 µM ([3]; Homo sapiens, Fibroblast, compound 10 uM, IL-1 0.1 ng/ml, 6 hours, S112 cells, read-out: % inhibition of IL-1-induced COX2 expression (Effect)): 7.7%
3.5	> 100	O=C(O)CCCCCOC(=O)c1ccc2cc(O)ccc2c1 [Compound 22]	11.6	–
6.4	1.18	CCOC(=O)c1ccc2cc(O)ccc2c1O [Compound 28, Ethyl 1,6-dihydroxy-2-naphthaote]	–	inhibition at 25 µM ([3]; Homo sapiens, Fibroblast, compound 25 uM, IL-1 0.1 ng/ml, 6 hours, S112 cells, read-out: % inhibition of IL-1-induced COX2 expression (Effect)): 7.8%
12.5	0.54	CCOC(=O)c1ccc2cc(SC(=O)N(C)C)ccc2c1OC [Compound 33, Ethyl-6-[(dimethylamino)carbonyl]sulfanyl-1-methoxy-2-naphthoate]	5.3	–
8.89	0.22	COC(=O)c1cc2cc(OC)ccc2cc1O [Compound 35, methyl 2-hydroxy-6-methoxy-3-naphthoate]	–	–
49.3	89.8	COc1ccc2cc(C)c(C(=O)O)cc2c1 [Compound 39, 7-methoxy-3-methyl-2-naphthoic acid: 2-amino-2-methylpropan-1-ol salt]	13.3	–
2.57	8.9	COc1ccc2cc(C)c(C(=O)O)cc2c1Br [Compound 40, 5-bromo-6-methoxy-2-methyl-3-naphthaoic acid]	8.5	–
–	–	CCCCCNCc1cc2ccc(O)cc2cc1C(=O)O [Compound 43, 6-hydroxy-[2-(1-pentylamino)methyl]-3-naphthoic acid]	–	EC50 [2, 6]: 1.85 µM; EC50 [2, 7]: 41.5 µM; % inhibition of IL-1-induced COX2 expression (Effect) ([3]; compound 50 uM, IL-1 0.1 ng/ml, 6 hours, S112 cells): 24.10%
12.7	> 100	COC(=O)c1ccc2ccc(OC)cc2c1 [Compound 44, Methyl 7-methoxy-2-naphthoate ester]	9.8	–
14.8	32.4	COC(=O)c1ccc2ccc(O)cc2c1 [Compound 45, Methyl 7-hydroxy-2-naphanoate ester]	–	–
–	28.1	COC(=O)c1ccc2ccc(O)c([N+](=O)[O-])c2c1 [Compound 46, Methyl 7-hydroxy-8-nitro-2-naphthoate ester]	9.3	–
13.1	> 100	COC(=O)c1ccc2c([N+](=O)[O-])c(O)ccc2c1 [Compound 47, Methyl 6-hydroxy-5-nitro-2-naphthoate ester]	–	–
1.01	11.9	COC(=O)c1ccc2c(N)c(OC)ccc2c1 [Compound 49, Methyl 5-amino-6-methoxy-2-naphthoate ester]	–	–
–	22.3	COc1ccc2cc(C(CCCCCO)C(=O)O)ccc2c1 (stereo not shown) [Compound 58, 7-hydroxy-2-(6-methoxy-2-naphthyl)heptanoic acid]	–	–
–	18	COC(=O)c1ccc2cc(OC)cc(C)c2c1 [Compound 65, Methyl 6-methoxy-8-methyl-2-napthoate ester]	50.4	–
–	–	C[C@@H]1C[C@H]2[C@@H]3CCC4=CC(=O)C=C[C@]4(C)[C@@]3(F)[C@@H](O)C[C@]2(C)[C@@]1(O)C(=O)CO [dexamethasone, reference compound]	–	% inhibition (IL-1 induced COX-2 expression) ([3]; Table 2 experiment 2: dexamethasone alone, 10^−9 M): 63.8%
